Assay results: patent US20260374773A1, “MULTI-CYCLIC IRAK AND FLT3 INHIBITING COMPOUNDS AND USES THEREOF” (CHILDREN'S HOSPITAL MEDICAL CENTER, priority 2022, published 2026)

Each compound was assayed against T1, FLT3 D835H (Homo sapiens, UniProt P36888, D835H) (assay: DiscoverX KINOMEscan active site-directed competition binding, FLT3 D835H). Details: Table 12; no ATP.
T1 sequence (P36888 27-993 D835H): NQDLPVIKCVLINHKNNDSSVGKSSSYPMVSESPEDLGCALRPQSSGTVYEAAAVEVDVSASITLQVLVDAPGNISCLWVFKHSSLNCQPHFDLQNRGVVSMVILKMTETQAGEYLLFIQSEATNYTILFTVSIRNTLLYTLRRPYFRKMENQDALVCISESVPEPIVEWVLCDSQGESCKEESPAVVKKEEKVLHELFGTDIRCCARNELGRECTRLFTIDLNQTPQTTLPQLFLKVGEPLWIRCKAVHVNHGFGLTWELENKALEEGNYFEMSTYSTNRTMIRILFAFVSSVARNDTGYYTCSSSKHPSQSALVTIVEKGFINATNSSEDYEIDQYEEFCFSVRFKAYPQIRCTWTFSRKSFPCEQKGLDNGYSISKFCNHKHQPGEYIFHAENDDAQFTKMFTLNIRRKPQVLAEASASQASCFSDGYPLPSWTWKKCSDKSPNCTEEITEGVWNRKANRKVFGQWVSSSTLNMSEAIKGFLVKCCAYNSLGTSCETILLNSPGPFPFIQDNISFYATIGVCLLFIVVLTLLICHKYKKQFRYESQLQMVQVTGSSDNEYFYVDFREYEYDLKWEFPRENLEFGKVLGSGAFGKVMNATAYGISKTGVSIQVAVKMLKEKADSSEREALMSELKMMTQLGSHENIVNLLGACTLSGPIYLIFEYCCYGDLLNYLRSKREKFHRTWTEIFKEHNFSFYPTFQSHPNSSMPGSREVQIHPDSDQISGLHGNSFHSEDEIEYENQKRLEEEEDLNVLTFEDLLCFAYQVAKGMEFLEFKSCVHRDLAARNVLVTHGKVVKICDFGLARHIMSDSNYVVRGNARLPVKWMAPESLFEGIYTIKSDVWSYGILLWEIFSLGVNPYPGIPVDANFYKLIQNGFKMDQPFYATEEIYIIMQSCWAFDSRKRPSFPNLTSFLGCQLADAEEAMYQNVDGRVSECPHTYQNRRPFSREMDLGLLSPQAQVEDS
From the text: (§1) Kinase binding data were obtained for various exemplary compounds prepared according to Examples 1-8 using the DiscoverX KINOMEscan® active site-directed competition binding site-directed assay protocol described below. […] As a result, the data report thermodynamic interaction affinities (Kd values), rather than IC50 values that are dependent on ATP concentrations. The assay uses a DNA-tagged version of the protein kinase, and an immobilized ligand bound to a solid support. Compounds that directly or indirectly prevent kinase binding to the immobilized ligand reduce the amount of kinase captured on the solid support, which is detected using an ultra-sensitive qPCR method. Affinity constants reported from the assay have been reported to be independent of the immobilized ligand used that is coupled to the solid support (See supplemental information in Fabian, M. A. et. al., (2005) Nat. Biotechnol. 23, 329-336; Wodicka, L. M. et. al., (2010) Chem. Biol. 17, 1241-1249.)
Kinase-tagged T7 phage strains were prepared in an E. coli host derived from the BL21 strain. E. coli were grown to log-phase and infected with T7 phage and incubated with shaking at 32 °C until lysis. The lysates were centrifuged and filtered to remove cell debris. The remaining kinases were produced in HEK-293 cells and subsequently tagged with DNA for qPCR detection. Streptavidin-coated magnetic beads were treated with biotinylated small molecule ligands for 30 minutes at room temperature to generate affinity resins for kinase assays. The liganded beads were blocked with excess biotin and washed with blocking buffer (SeaBlock (Pierce), 1% BSA, 0.05% Tween 20, 1 mM DTT) to remove unbound ligand and to reduce non-specific binding. […] Test compounds were prepared as 111x stocks in 100% DMSO. Kds were determined using an 11-point 3-fold compound dilution series with three DMSO control points. All compounds for Kd measurements are distributed by acoustic transfer (non-contact dispensing) in 100% DMSO. The compounds were then diluted directly into the assays such that the final concentration of DMSO was 0.9%. All reactions were performed in polypropylene 384-well plates. Each was a final volume of 0.02 mL. The assay plates were incubated at room temperature with shaking for 1 hour and the affinity beads were washed with wash buffer (1×PBS, 0.05% Tween 20). The beads were then re-suspended in elution buffer (1×PBS, 0.05% Tween 20, 0.5 μM nonbiotinylated affinity ligand) and incubated at room temperature with shaking for 30 minutes. The kinase concentration in the eluates was measured by qPCR. Binding constants (Kds) were calculated with a standard dose-response curve using the Hill equation. The Hill Slope was set to −1. Curves were fitted using a non-linear least square fit with the Levenberg-Marquardt algorithm.
as §1, with “9-12” for “1-8”
Kinase-tagged T7 phage strains were prepared in an E. coli host derived from the BL21 strain. […]
`COc1cn2ncc(-c3nc(N[C@H]4CNCC[C@@H]4F)c(C#N)cc3F)c2nc1C1CC1` [Compound 7, 6-(5-cyclopropyl-6-methoxypyrazolo[1,5-a]pyrimidin-3-yl)-5-fluoro-2-(((3S,4S)-4-fluoropiperidin-3-yl)amino)nicotinonitrile] was tested, and the Kd was 0.18 nM.
`COc1cn2ncc(-c3nc(N[C@H]4CNCC[C@@H]4F)c(C#N)cc3F)c2nc1C(C)(C)O` [Compound 10, 5-fluoro-2-(((3S,4S)-4-fluoropiperidin-3-yl)amino)-6-(5-(2-hydroxypropan-2-yl)-6-methoxypyrazolo[1,5-a]pyrimidin-3-yl)nicotinonitrile] was tested, and the Kd was 0.2 nM.
With `COc1cn2ncc(-c3nc(N[C@H]4CNCC[C@@H]4F)c(F)cc3F)c2nc1C(C)(C)O` [Compound 13, 2-(3-(3,5-difluoro-6-(((3S,4S)-4-fluoropiperidin-3-yl)amino)pyridin-2-yl)-6-methoxypyrazolo[1,5-a]pyrimidin-5-yl)propan-2-ol] the Kd was under 0.17 nM.

Same assay, conditions: Table 18; no ATP
In the case of `COc1cn2ncc(-c3nc(N[C@H]4CNCC[C@@H]4F)ncc3F)c2nc1C(C)(C)O` [Compound 6a, 2-(3-(5-fluoro-2-(((3S,4S)-4-fluoropiperidin-3-yl)amino)pyrimidin-4-yl)-6-methoxypyrazolo[1,5-a]pyrimidin-5-yl)propan-2-ol], the Kd is reported as 0.25 nM.
Work on `COc1cn2ncc(-c3ccnc(N[C@H]4CNCC[C@@H]4F)n3)c2nc1C1CC1` [Compound 7a, 4-(5-cyclopropyl-6-methoxypyrazolo[1,5-a]pyrimidin-3-yl)-N-((3S,4S)-4-fluoropiperidin-3-yl)pyrimidin-2-amine] yielded a Kd of 1.2 nM.
`COc1cn2ncc(-c3cncc(N[C@H]4CNCC[C@@H]4F)n3)c2nc1C1CC1` [Compound 12a, 6-(5-cyclopropyl-6-methoxypyrazolo[1,5-a]pyrimidin-3-yl)-N-((3S,4S)-4-fluoropiperidin-3-yl)pyrazin-2-amine] showed a Kd of 0.54 nM.
For `COc1cn2ncc(-c3nc(N[C@@H]4CCCNC4)ncc3F)c2nc1C1CC1` [Compound 14a, (R)-4-(5-cyclopropyl-6-methoxypyrazolo[1,5-a]pyrimidin-3-yl)-5-fluoro-N-(piperidin-3-yl)pyrimidin-2-amine], the Kd was 0.2 nM.
Work on `COc1cn2ncc(-c3nc(N[C@H]4CNCC[C@@H]4F)ncc3F)c2nc1C1CC1` [Compound 15a, 4-(5-cyclopropyl-6-methoxypyrazolo[1,5-a]pyrimidin-3-yl)-5-fluoro-N-((3S,4S)-4-fluoropiperidin-3-yl)pyrimidin-2-amine] yielded a Kd of 0.37 nM.
